Tested on: MGC-803 cells
Assay: Western blot of EMT-related markers
Format: cell-based, human
Method: In a transwell test, the average numbers of migrated cells in fields of control, 0.1 and 0.2 μM 28 treated MGC-803 cells were 29.4, 22.4 and 16.6, respectively (Fig. 6B and C). Based on the results from these tests, we next examined the protein expression of EMT-related makers such as E-cadherenin, N-cadherenin, ZO-1 and Vementin[55].

Compound: COc1cc(N2C(=O)[C@H](c3cccs3)[C@H]2c2cccc(N=[N+]=[N-])c2)cc(OC)c1OC (relative stereo) [Compound 28, trans-4-(3-azidophenyl)-3-(thiophen-2-yl)-1-(3,4,5-trimethoxyphenyl)azetidin-2-one]
- expression of E-cadherin and ZO-1: up-regulated
- expression of N-cadherin and vimentin: down-regulated

From article PMC5630639 (Scientific Reports, 2017)
